Tests used:
Cruzipain = Cruzipain (Trypanosoma cruzi, UniProt P25779); assay: Inhibition of Trypanosoma cruzi cruzain using Z-FR-AMC as substrate by fluorescence assay
Cathepsin K = molecular target: T1, Cathepsin K (Homo sapiens, UniProt P43235); assay: Inhibition of recombinant human liver CatK using Z-FR-AMC as substrate by fluorescence assay
T1 sequence (P43235 whole entry): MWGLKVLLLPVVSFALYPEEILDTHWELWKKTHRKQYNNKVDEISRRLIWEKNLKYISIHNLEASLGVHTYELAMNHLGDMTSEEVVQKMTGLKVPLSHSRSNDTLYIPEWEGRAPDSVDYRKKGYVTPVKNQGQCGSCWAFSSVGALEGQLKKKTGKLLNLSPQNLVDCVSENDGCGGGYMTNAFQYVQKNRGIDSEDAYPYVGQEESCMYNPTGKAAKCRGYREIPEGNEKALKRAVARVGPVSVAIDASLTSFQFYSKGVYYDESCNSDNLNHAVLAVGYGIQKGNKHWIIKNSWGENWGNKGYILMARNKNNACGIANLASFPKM

Cathepsin S [1] = molecular target: T2, Cathepsin S (Homo sapiens, UniProt P25774); assay: Inhibition of recombinant human liver CatS using Z-FR-AMC as substrate by fluorescence assay
Target sequence in this assay (P25774 whole entry): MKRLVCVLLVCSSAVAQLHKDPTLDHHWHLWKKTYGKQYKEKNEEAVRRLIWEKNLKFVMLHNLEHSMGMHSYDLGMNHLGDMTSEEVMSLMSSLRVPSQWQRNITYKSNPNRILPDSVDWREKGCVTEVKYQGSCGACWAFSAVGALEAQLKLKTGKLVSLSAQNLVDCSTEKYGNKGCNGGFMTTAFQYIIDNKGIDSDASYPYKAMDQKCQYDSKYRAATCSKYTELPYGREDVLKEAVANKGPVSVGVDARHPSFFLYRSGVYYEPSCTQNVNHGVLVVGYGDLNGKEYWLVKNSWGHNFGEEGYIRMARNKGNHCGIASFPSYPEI

Procathepsin L [2] = molecular target: T3, Procathepsin L (Homo sapiens, UniProt P07711); assay: Inhibition of recombinant human liver CatL at 10 uM using Z-FR-AMC as substrate by fluorescence assay relative to control
Target sequence in this assay (P07711 114-333 limits assumed): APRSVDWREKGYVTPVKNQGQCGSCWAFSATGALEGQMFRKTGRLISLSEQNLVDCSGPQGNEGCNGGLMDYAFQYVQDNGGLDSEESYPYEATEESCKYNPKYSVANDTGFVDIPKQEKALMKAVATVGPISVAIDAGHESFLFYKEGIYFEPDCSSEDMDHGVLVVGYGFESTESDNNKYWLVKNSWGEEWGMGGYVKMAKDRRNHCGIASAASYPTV

Cathepsin B [3] = molecular target: T4, Cathepsin B (Homo sapiens, UniProt P07858); assay: Inhibition of recombinant human liver CatB at 10 uM using Z-FR-AMC as substrate by fluorescence assay relative to control
[4] = molecular target: T5, Cathepsin K (Homo sapiens) (UniProt P43235); assay: Inhibition of recombinant human liver CatK at 10 uM using Z-FR-AMC as substrate by fluorescence assay relative to control
T5 sequence (whole entry): T1 sequence (P43235 whole entry)

Cathepsin S [5] = molecular target: T2, Cathepsin S; assay: Inhibition of recombinant human liver CatS at 10 uM using Z-FR-AMC as substrate by fluorescence assay relative to control
Target sequence in this assay (P25774 115-331 limits assumed): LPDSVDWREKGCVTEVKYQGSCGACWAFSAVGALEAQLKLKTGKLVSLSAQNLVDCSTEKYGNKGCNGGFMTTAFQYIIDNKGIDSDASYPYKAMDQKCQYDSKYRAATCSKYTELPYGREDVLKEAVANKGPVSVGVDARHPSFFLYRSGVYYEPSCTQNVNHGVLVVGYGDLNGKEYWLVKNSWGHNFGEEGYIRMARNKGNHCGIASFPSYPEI

Cathepsin B [6] = molecular target: T4, Cathepsin B; assay: Inhibition of recombinant human liver CatB using Z-FR-AMC as substrate by fluorescence assay
[7] = molecular target: Cruzipain (Trypanosoma cruzi) (UniProt P25779); assay: Inhibition of Trypanosoma cruzi cruzain at 10 uM using Z-FR-AMC as substrate by fluorescence assay relative to control
Procathepsin L [8] = molecular target: T3, Procathepsin L; assay: Inhibition of recombinant human liver CatL using Z-FR-AMC as substrate by fluorescence assay
Target sequence in this assay (P07711 whole entry): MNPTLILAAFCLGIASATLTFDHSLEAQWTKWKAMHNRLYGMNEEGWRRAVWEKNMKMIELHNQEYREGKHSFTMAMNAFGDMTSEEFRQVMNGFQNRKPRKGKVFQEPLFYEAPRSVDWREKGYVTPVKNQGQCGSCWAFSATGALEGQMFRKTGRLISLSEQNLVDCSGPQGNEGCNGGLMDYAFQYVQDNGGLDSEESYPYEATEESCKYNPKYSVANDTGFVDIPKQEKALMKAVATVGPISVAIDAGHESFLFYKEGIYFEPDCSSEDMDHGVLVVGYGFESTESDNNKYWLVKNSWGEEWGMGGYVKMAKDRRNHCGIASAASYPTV

Chain of Cruzipain (Trypanosoma cruzi) (P25779 123-467 limits assumed): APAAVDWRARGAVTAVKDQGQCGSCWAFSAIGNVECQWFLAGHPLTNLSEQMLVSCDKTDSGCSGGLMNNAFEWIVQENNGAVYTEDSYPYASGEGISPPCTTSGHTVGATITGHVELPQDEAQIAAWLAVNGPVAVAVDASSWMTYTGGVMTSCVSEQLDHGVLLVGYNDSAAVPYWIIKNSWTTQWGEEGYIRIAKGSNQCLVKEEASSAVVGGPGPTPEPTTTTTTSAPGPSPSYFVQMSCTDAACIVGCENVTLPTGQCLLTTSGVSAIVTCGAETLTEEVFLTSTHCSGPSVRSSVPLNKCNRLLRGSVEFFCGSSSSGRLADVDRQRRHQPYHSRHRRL
Chain of Cruzipain (P25779 whole entry): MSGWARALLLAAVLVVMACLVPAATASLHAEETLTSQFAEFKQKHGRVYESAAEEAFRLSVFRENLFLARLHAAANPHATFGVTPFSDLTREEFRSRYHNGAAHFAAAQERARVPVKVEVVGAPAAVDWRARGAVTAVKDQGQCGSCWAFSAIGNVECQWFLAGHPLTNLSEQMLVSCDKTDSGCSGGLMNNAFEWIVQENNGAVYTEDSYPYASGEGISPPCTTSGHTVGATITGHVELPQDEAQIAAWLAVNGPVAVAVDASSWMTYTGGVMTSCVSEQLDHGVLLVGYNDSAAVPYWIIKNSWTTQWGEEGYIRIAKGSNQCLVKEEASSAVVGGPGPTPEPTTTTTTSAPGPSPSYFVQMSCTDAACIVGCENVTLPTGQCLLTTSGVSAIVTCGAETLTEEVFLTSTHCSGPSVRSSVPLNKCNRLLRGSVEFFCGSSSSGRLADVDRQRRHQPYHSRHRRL

Ki (Cruzipain) [µM]	Ki (Cathepsin K) [µM]	Ki (Cathepsin S [1]) [µM]	inhibition (Procathepsin L [2]) [%]	inhibition (Cathepsin B [3]) [%]	inhibition [4] [%]	inhibition (Cathepsin S [5]) [%]	Ki (Cathepsin B [6]) [µM]	inhibition [7] [%]	Ki (Procathepsin L [8]) [µM]	SMILES
5.01	2.51	0.794	> 95	83	–	–	–	–	–	COc1ccc(-c2ccc(C(=O)N(CC(=O)NCC#N)Cc3ccccc3)cc2)cc1
2.51	–	–	87	> 95	58	> 95	–	–	–	N#CC1(NC(=O)CN(Cc2ccccc2)C(=O)Cc2ccccc2)CC1
6.31	–	–	85	–	54	> 95	3.98	–	–	Cn1nc(C(C)(C)C)cc1C(=O)N(CC(=O)NC1(C#N)CC1)Cc1ccccc1
0.158	–	–	> 95	–	> 95	> 95	7.94	–	–	Cn1nc(C(C)(C)C)cc1C(=O)N(CC(=O)NCC#N)Cc1cccc(Cl)c1
–	–	–	88	93	58	84	–	> 95	–	Cn1nc(C(C)(C)C)cc1C(=O)N(CC(=O)NCC#N)Cc1ccccc1
6.31	0.251	7.94	> 95	90	–	–	–	–	–	CC(C)(C#N)NC(=O)CN(Cc1ccccc1)C(=O)c1ccccc1
7.94	0.398	5.01	82	91	–	–	–	–	–	N#CC1(NC(=O)CN(Cc2ccccc2)C(=O)c2ccccc2)CC1
0.2	–	–	–	–	–	–	7.94	–	–	N#CC1(NC(=O)[C@H](Cc2ccccc2)NC(=O)c2ccccc2)CC1
3.16	–	6.31	–	66	86	–	–	–	10	N#CCNC(=O)CN(Cc1ccccc1)C(=O)c1ccc(-c2ccccc2)cc1
10	10	3.98	68	78	–	–	–	–	–	COc1ccc(-c2ccc(C(=O)N(CC(=O)NC3(C#N)CC3)Cc3ccccc3)cc2)cc1
6.31	–	5.01	–	85	> 95	–	–	–	0.631	N#CCNC(=O)CN(Cc1ccccc1)C(=O)c1ccccc1
–	0.316	–	–	80	–	84	–	87	3.16	Cn1nc(C(C)(C)C)cc1C(=O)N(CC(=O)N[C@H](C#N)Cc1ccccc1)Cc1ccccc1
–	–	10	–	87	> 95	–	–	34	6.31	N#CCNC(=O)CN(Cc1ccccc1)C(=O)c1cccc(I)c1
0.251	–	–	> 95	–	> 95	89	3.16	–	–	N#CC1(NC(=O)CN(Cc2ccccc2)C(=O)c2ccc(-c3ccccc3)cc2)CC1
–	–	2	–	> 95	68	–	–	87	2.51	N#CCNC(=O)CN(Cc1ccccc1)S(=O)(=O)c1cccc(Cl)c1
